Calls of active or inactive are those of the source. The calls are words filed in the database; no cut-off is given here.
Tests used:
[1] = target: Mitogen-activated protein kinase 14 (Homo sapiens, UniProt Q16539); test: Inhibition of P38alpha (unknown origin)
[2] = Metabolic stability in mouse liver microsomes assessed as half life; format: ADME, Microsome
SH-SY5Y = test: Cytotoxicity against human SH-SY5Y cells assessed as cell viability at 10 uM after 48 hrs by MTT assay relative to control; format: cell-based
[3] = Metabolic stability in human liver microsomes assessed as half life; format: ADME, Microsome
[4] = target: Mitogen-activated protein kinase 10 (Rattus norvegicus) (UniProt P49187); test: Inhibition of JNK3 in rat primary neuron assessed as reduction in phosphorylation of APP at T688 residue at 10 nM incubated for 30 mins by Western blot analysis; details: dose nM 10, time 30.0 min
[5] = Plasma concentration in C57BL/6J mouse at 10 mg/kg, po measured after 1 hr by LC-MS/MS analysis; format: ADME, organism-based
[6] = Brain concentration in C57BL/6J mouse at 10 mg/kg, po measured after 1 hr by LC-MS/MS analysis; format: ADME, organism-based; details: read-out: Drug uptake

Mitogen-activated protein kinase 10 (Rattus norvegicus), sequence (P49187 whole entry): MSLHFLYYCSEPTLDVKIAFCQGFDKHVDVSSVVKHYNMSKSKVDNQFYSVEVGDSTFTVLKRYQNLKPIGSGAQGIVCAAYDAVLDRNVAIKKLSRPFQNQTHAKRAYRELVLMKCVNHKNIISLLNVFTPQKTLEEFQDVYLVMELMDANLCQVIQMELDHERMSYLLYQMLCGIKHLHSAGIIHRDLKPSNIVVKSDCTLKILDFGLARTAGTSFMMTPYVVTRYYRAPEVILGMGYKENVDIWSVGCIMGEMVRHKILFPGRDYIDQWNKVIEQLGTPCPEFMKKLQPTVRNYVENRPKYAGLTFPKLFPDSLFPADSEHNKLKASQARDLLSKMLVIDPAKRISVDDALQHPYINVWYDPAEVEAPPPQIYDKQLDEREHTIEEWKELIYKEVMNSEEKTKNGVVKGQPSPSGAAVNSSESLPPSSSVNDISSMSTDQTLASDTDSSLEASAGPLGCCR
Mitogen-activated protein kinase 14, sequence (Q16539 whole entry): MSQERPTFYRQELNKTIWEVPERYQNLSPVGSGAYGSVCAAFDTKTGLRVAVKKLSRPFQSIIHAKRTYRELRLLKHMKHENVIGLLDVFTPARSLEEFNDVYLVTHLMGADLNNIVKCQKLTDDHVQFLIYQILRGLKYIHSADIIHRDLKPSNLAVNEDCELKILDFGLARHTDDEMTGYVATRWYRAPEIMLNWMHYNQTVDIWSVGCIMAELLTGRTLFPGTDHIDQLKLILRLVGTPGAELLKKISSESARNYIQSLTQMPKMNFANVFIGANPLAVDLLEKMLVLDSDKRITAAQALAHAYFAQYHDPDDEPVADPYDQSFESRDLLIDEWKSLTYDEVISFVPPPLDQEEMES

| Structure (SMILES) | IC50 [1] [µM] | t1/2 [2] [min] | Activity (SH-SY5Y) [%] | t1/2 [3] [min] | inhibition [4] | concentration at 1 h [5] [nM] | concentration at 1 h [6] [nM] |
| --- | --- | --- | --- | --- | --- | --- | --- |
| O=C(Nc1cnn(-c2csc(C(=O)N[C@@H]3CCNC3)c2)c1)Nc1ccccc1Cl | > 20 | – | – | – | – | – | – |
| O=C(Nc1cnn(-c2cc(C(=O)NC3CNC3)cs2)c1)Nc1ccccc1Cl | > 20 | – | – | – | – | – | – |
| CN1CCC[C@H]1CNC(=O)c1cc(-n2cc(NC(=O)Nc3ccccc3Cl)cn2)cs1 | > 20 | – | – | – | – | – | – |
| CN1CC[C@@H](NC(=O)c2cc(-n3cc(NC(=O)Nc4ccccc4Cl)cn3)cs2)C1 | > 20 | – | – | – | – | – | – |
| O=C(Nc1cnn(-c2csc(C(=O)N[C@@H]3CCOC3)c2)c1)Nc1ccccc1Cl | > 20 | 13 | 112 | 33 | – | – | – |
| O=C(Nc1cnn(-c2csc(C(=O)NC3COC3)c2)c1)Nc1ccc(F)cc1Cl | – | 68 | 104 | > 120 | Active | – | – |
| O=C(Nc1cnn(-c2csc(C(=O)NC3COC3)c2)c1)Nc1ccccc1Cl | > 20 | 24 | 104 | 66 | Active | 960 | 1080 |
| Cc1sc(C(=O)NC2COC2)cc1-n1cc(NC(=O)Nc2c(F)cccc2Cl)cn1 | – | 57 | 111 | 110 | – | – | – |
| O=C(Nc1cnn(-c2csc(C(=O)NC3COC3)c2)c1)Nc1c(F)cccc1Cl | – | 72 | 102 | 100 | – | – | – |
| O=C(Nc1cnn(-c2csc(C(=O)NCC3CCOCC3)c2)c1)Nc1ccccc1Cl | – | 15 | 95 | 8 | – | – | – |
| CC(C)N1CC[C@H](NC(=O)c2cc(-n3cc(NC(=O)Nc4ccccc4Cl)cn3)cs2)C1 | > 20 | – | – | – | – | – | – |
| O=C(Nc1cnn(-c2csc(C(=O)NC3CC3)c2)c1)Nc1ccccc1Cl | – | 35 | 103 | 49 | – | – | – |
| O=C(Nc1cnn(-c2csc(C(=O)NC[C@H]3CCOC3)c2)c1)Nc1ccccc1Cl | > 20 | – | – | – | – | – | – |
| [2H]C([2H])([2H])N1CC[C@@H](NC(=O)c2cc(-n3cc(NC(=O)Nc4ccccc4Cl)cn3)cs2)C1 | > 20 | – | – | – | – | – | – |
| CN1CCC(NC(=O)c2cc(-n3cc(NC(=O)Nc4ccccc4Cl)cn3)cs2)CC1 | – | 15 | 89 | 92 | – | – | – |
| CN1CC[C@H](CNC(=O)c2cc(-n3cc(NC(=O)Nc4ccccc4Cl)cn3)cs2)C1 | > 20 | – | – | – | – | – | – |
| O=C(Nc1cnn(-c2csc(C(=O)NC3CCOCC3)c2)c1)Nc1ccccc1Cl | – | 16 | 97 | – | – | – | – |
| CN1CC[C@H](NC(=O)c2cc(-n3cc(NC(=O)Nc4ccccc4Cl)cn3)cs2)C1 | > 20 | – | 94 | 54 | – | – | – |
| Cc1sc(C(=O)N[C@@H]2CCOC2)cc1-n1cc(NC(=O)Nc2c(F)cccc2Cl)cn1 | – | 38 | 114 | 40 | Active | – | – |
